Broadly, the Ki is a dissociation constant, usually derived from enzyme kinetics or from competition with a known ligand. Read a low Ki as a stronger hold on the target.

Test [1] has as its target Urokinase-type plasminogen activator (Homo sapiens, UniProt P00749).
Test [2] deals with Tissue-type plasminogen activator (Homo sapiens, UniProt P00750). The test is described as follows: Inhibitory activity against tissue plasminogen activator.
In the next test the target is Serine protease 1 (Homo sapiens, UniProt P07477). The test is described as follows: Inhibitory activity against Trypsin.
A further test has as its target Prothrombin (Homo sapiens, UniProt P00734). In words: Inhibitory activity against Thrombin (no observable inhibition at this screening concentration).
A further test deals with Plasminogen (Homo sapiens, UniProt P00747). The test is described as follows: Inhibitory activity against plasmin.
Plasminogen, sequence (P00747 97-580 limits assumed): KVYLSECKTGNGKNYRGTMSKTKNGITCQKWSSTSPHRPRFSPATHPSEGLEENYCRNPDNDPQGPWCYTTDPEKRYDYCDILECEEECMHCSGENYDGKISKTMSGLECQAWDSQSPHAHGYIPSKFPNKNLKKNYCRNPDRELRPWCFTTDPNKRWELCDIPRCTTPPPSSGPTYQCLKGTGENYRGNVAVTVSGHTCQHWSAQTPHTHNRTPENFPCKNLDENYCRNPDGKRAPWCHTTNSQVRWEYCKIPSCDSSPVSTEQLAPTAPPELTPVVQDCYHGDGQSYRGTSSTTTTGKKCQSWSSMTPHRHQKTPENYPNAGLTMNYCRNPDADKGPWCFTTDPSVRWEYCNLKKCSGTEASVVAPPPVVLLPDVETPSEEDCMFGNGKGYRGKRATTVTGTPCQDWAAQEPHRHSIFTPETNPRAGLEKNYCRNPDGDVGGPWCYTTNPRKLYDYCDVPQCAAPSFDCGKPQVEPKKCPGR
Plasminogen, sequence (P00747 581-810 limits assumed): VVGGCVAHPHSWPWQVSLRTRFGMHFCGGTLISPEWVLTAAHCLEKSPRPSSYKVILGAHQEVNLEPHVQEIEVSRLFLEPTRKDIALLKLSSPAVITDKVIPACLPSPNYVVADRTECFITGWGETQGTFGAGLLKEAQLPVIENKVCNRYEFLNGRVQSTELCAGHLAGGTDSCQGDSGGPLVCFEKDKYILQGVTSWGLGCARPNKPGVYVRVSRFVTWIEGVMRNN

Tissue-type plasminogen activator, sequence (P00750 whole entry): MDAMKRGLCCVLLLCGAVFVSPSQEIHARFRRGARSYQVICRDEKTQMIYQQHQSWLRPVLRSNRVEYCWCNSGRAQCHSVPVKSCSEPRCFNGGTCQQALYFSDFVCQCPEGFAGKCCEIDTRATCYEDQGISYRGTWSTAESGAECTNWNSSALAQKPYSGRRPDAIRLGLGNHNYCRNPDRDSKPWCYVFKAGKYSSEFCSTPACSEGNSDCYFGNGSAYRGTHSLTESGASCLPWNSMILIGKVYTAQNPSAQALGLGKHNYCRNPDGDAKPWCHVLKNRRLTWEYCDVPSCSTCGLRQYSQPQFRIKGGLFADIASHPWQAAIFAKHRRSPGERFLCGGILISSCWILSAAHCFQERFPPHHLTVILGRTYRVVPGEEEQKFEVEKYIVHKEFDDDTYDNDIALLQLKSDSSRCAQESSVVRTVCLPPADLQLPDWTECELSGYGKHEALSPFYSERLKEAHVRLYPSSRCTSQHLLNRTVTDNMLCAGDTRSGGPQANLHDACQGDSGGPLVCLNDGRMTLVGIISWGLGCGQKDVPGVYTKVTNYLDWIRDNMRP
Serine protease 1, sequence (P07477 whole entry): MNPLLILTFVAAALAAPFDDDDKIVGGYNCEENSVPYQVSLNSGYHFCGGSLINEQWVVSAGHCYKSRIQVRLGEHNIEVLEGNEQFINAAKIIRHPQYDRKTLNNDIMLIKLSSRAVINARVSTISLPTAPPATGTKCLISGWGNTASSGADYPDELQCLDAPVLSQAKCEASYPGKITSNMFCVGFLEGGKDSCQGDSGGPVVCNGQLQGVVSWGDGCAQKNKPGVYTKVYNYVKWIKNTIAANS

`CSc1sc(C(=N)N)cc1-c1nc(-c2ccc(Cl)cc2)cs1` returned an inhibition constant Ki in test [1] of 99 µM. For `COc1ccccc1-c1csc(-c2cc(C(=N)N)sc2SC)n1`, in test [1], the inhibition constant (Ki) was found to be 130 µM. On the same count and under the same terms, then `CSc1sc(C(=N)N)cc1-c1nc(-c2ccc(Cl)cc2Cl)cs1`, with 287 µM; and `CSc1sc(C(=N)N)cc1-c1nc(-c2cccc(NC(=O)c3ccc(F)cc3)c2)cs1`, with 47 µM.

`CSc1sc(C(=N)N)cc1-c1nc(-c2cccc(O)c2)cs1`: the inhibitory constant (Ki) in test [2] was 1.7 µM; on Serine protease 1 it was 0.93 µM; on Prothrombin it was above 25 µM; in test [1] it was 86 µM; at Plasminogen, 32.1 µM. In turn, `CSc1sc(C(=N)N)cc1-c1nc(-c2cccc(Br)c2)cs1` yielded an inhibitory constant (Ki) in test [1] of 442 µM. For `CSc1sc(C(=N)N)cc1-c1nc(-c2ccc(NS(C)(=O)=O)cc2)cs1`, the affinity in test [1], expressed as Ki, was 94 µM. In test [1], `CSc1sc(C(=N)N)cc1-c1nc(-c2cccc(C)c2)cs1` returned a Ki of 546 µM. Still for that read-out and setting: then `CSc1sc(C(=N)N)cc1-c1nc(-c2ccc3ccccc3c2)cs1`, with 138 µM.

In test [1], `COc1ccc(-c2csc(-c3cc(C(=N)N)sc3SC)n2)cc1` gave an inhibitory constant (Ki) of 327 µM. On the same count and under the same terms, then `CSc1sc(C(=N)N)cc1-c1cccc(-c2ccccc2)n1`, with above 28 µM; and `CSc1sc(C(=N)N)cc1-c1nc(-c2ccc(O)c(C)c2)cs1`, with 44 µM; and `CSc1sc(C(=N)N)cc1-c1nc(-c2csc3ccccc23)cs1`, with 141 µM.

In test [1], `CSc1sc(C(=N)N)cc1-c1nc(-c2ccccc2)c(C)s1` displayed an inhibition constant Ki of 305 µM. This Ki is about 2.2-fold higher than that of the compound before. The same measure, in the same setting: then `CSc1sc(C(=N)N)cc1-c1nc(C)cs1`, with 815 µM; and `CSc1sc(C(=N)N)cc1-c1nc(-c2ccc(Cl)c([N+](=O)[O-])c2)cs1`, with 161 µM; and `CSc1sc(C(=N)N)cc1-c1nc(-c2cnccc2Cl)cs1`, with 164 µM. Still for that read-out and setting: for `CSc1sc(C(=N)N)cc1-c1nc(COc2ccccc2)cs1` the value was 178 µM. Still for that read-out and setting: then `CSc1sc(C(=N)N)cc1-c1nc(-c2ccc3c(c2)OCCCO3)cs1`, with 100 µM. `CSc1sc(C(=N)N)cc1-c1cccc(-c2ccccc2)c1` had an inhibition constant (Ki) in test [1] above 34 µM. Regarding `COc1cccc(-c2csc(-c3cc(C(=N)N)sc3SC)n2)c1`, the Ki in test [2] was 1.9 µM; at Serine protease 1, 0.86 µM; on Prothrombin it was above 30 µM; in test [1], 115 µM; on Plasminogen, 6.9 µM. In test [1], `CSc1sc(C(=N)N)cc1-c1nc(-c2ccccc2C)cs1` displayed a Ki of 277 µM. Same read-out and setting: for `CSc1sc(C(=N)N)cc1-c1nc(-c2ccc3c(c2)OCCO3)cs1` the value was 108 µM; for `CSc1ccc(C(=N)N)s1`, 6 µM; for `COc1ccc(-c2csc(-c3cc(C(=N)N)sc3SC)n2)c(OC)c1`, 152 µM. Regarding `CSc1sc(C(=N)N)cc1-c1nc(C2CCCCC2)cs1`, the affinity in test [1], expressed as Ki, was 641 µM. On the same count and under the same terms, for `CSc1sc(C(=N)N)cc1-c1nc(-c2ccccc2)c(-c2ccccc2)s1` the value was 982 µM; for `CSc1sc(C(=N)N)cc1-c1nc(-c2ccc(S(=O)(=O)Nc3ccc(C)cc3)cc2)cs1`, 272 µM. The same measure, in the same setting: then `COC(=O)COc1cccc(-c2csc(-c3cc(C(=N)N)sc3SC)n2)c1`, with 44 µM; and `CSc1sc(C(=N)N)cc1-c1nc(-c2ccc(-c3ccccc3)cc2)cs1`, with 1740 µM; and `CSc1sc(C(=N)N)cc1-c1nc(-c2ccc([N+](=O)[O-])cc2)cs1`, with 270 µM. Still for that read-out and setting: then `CSc1sc(C(=N)N)cc1-c1nc(-c2cccnc2Cl)cs1`, with 154 µM; and `CSc1sc(C(=N)N)cc1-c1nc(-c2ccnc(Cl)c2)cs1`, with 120 µM. In turn, `CSc1sc(C(=N)N)cc1-c1nc(-c2ccc3c(c2)CCCC3)cs1` returned a Ki in test [1] of 145 µM. On to `CSc1sc(C(=N)N)cc1-c1nc(-c2ccc3c(c2)OCO3)cs1`, for which the Ki was 1.7 µM in test [2]; 0.88 µM on Serine protease 1; above 29 µM at Prothrombin; 91 µM in test [1]; 10.8 µM on Plasminogen. `CSc1sc(C(=N)N)cc1-c1ccccc1`: the affinity in test [1], expressed as Ki, was 0.6 µM. The same measure, in the same setting: then `CSc1sc(C(=N)N)cc1-c1nc(-c2ccc(C)cc2)cs1`, with 94 µM.

Source of the values: ChEMBL document CHEMBL1134078, “Structure-based design, synthesis and SAR of a novel series of thiopheneamidine urokinase plasminogen activator inhibitors” (Bioorg Med Chem Lett, 2001).
